Experimental data as given in ChEMBL document CHEMBL1140811, “Inhibition of dipeptidyl peptidase-IV (DPP-IV) by atorvastatin” (Bioorg Med Chem Lett, 2008).
Activity calls are given as the source filed them. No cut-off for these calls is given here.

Experiments:
Dipeptidyl peptidase 4 [1] = target: T1, Dipeptidyl peptidase 4 (Homo sapiens, UniProt P27487); experiment: Inhibition of DPP4
Target sequence in this assay (P27487 whole entry): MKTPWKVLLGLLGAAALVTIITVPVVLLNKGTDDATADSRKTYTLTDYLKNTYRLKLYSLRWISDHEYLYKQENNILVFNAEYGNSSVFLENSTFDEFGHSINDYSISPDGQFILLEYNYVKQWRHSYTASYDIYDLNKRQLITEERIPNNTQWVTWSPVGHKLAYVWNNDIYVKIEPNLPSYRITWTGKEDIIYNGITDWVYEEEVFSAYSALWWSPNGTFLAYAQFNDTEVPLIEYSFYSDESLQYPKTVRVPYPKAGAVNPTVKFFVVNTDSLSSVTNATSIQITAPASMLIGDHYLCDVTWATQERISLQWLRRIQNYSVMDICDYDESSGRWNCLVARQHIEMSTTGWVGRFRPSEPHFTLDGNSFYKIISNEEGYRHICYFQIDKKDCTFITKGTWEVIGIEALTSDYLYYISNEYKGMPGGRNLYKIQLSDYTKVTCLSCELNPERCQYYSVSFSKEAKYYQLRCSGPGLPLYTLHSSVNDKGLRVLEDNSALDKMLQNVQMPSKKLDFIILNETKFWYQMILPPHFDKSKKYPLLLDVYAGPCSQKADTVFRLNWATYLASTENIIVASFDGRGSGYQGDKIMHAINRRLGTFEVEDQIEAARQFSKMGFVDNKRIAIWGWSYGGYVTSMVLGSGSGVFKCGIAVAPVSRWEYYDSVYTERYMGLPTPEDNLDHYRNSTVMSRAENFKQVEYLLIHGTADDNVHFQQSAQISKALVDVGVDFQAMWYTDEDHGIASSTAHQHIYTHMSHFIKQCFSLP

[2] = target: Dipeptidyl peptidase 4 (Sus scrofa) (UniProt P22411); experiment: Inhibition of pig DPP4 at 500 uM
Dipeptidyl peptidase 4 [3] = target: Dipeptidyl peptidase 4 (Sus scrofa, UniProt P22411); experiment: Inhibition of pig DPP4
Dipeptidyl peptidase 4 [4] = target: T1, Dipeptidyl peptidase 4; experiment: Inhibition of DPP4 upto 3.3 mM
Target sequence in this assay (P27487 whole entry, looked up): as the sequence (P27487 whole entry) above

Dipeptidyl peptidase 4 [5] = target: T1, Dipeptidyl peptidase 4; experiment: Inhibition of DPP4 at 10 mM
Target sequence in this assay (P27487 whole entry, looked up): as the sequence (P27487 whole entry) above

Dipeptidyl peptidase 4 [6] = target: T1, Dipeptidyl peptidase 4; experiment: Inhibition of DPP4 at 30 mM
Target sequence in this assay (P27487 whole entry, looked up): as the sequence (P27487 whole entry) above

Dipeptidyl peptidase 4 (Sus scrofa), sequence (P22411 whole entry, looked up): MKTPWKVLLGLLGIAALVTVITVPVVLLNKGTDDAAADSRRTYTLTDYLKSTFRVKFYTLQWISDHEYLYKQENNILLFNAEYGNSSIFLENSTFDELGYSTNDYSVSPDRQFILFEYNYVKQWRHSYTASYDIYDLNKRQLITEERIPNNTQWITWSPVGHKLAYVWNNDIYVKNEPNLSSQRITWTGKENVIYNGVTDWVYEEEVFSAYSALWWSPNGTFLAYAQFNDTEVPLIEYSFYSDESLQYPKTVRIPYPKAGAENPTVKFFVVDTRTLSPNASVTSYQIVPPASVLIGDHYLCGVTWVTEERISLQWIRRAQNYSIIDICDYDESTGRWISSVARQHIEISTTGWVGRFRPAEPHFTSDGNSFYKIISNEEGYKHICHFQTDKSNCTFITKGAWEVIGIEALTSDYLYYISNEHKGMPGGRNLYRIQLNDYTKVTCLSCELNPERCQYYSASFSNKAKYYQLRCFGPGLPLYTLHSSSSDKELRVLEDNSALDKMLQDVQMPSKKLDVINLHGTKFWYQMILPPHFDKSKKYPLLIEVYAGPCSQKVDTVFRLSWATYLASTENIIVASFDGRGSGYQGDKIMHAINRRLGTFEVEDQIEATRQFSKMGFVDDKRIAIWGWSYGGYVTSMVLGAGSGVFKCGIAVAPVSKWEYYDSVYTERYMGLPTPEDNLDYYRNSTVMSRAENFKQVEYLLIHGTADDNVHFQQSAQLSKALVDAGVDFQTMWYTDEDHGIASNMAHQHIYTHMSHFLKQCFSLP
Dipeptidyl peptidase 4 (Sus scrofa, UniProt P22411), sequence (P22411 whole entry): as the sequence (P22411 whole entry, looked up) above

Compound: CN(C)C(=N)N=C(N)N [METFORMIN]
- IC50 (Dipeptidyl peptidase 4 [1]): 29 µM

Compound: CC(C)c1c(C(=O)Nc2ccccc2)c(-c2ccccc2)c(-c2ccc(F)cc2)n1CC[C@@H](O)C[C@@H](O)CC(=O)O [ATORVASTATIN]
- inhibition [2]: 66%
- IC50 (Dipeptidyl peptidase 4 [3]): 175 µM

Compound: CC(C)c1nc(N(C)S(C)(=O)=O)nc(-c2ccc(F)cc2)c1/C=C/[C@@H](O)C[C@@H](O)CC(=O)O
- inhibition [2]: 4%

Compound: CC(C)n1c(/C=C/[C@@H](O)C[C@@H](O)CC(=O)O)c(-c2ccc(F)cc2)c2ccccc21
- inhibition [2]: 8%

Compound: CN(C)C(=N)NC(=N)N
- Activity (Dipeptidyl peptidase 4 [4]): inactive
- inhibition (Dipeptidyl peptidase 4 [5]): 12.7%
- inhibition (Dipeptidyl peptidase 4 [6]): 21.9%
